Results from PubChem BioAssay (NCI).
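Compound exposure: 48 hours, 5 concentrations, 96-well plates. Abbreviation: GI50, concentration required for 50% inhibition of growth. The concentration for full growth arrest is given as TGI.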

Columns and labels:
Experiment in all cases: NCI anticancer screen, dose series, 48 h
[1] = system: 786-0 renal
[2] = system: A498 renal
[3] = system: A549 NSCLC
[4] = system: ACHN renal
[5] = system: BT-549 breast
[6] = system: CAKI-1 renal
[7] = system: CCRF-CEM leukemia
[8] = system: COLO 205 colon
[9] = system: DU-145 prostate
[10] = system: HCC-2998 colon
[11] = system: HCT-116 colon
[12] = system: HCT-15 colon
[13] = system: HL-60(TB) leukemia
[14] = system: HOP-62 NSCLC
[15] = system: HOP-92 NSCLC
[16] = system: HS 578T breast
[17] = system: HT29 colon
[18] = system: IGROV1 ovarian
[19] = system: K-562 leukemia
[20] = system: KM12 colon
[21] = system: LOX IMVI melanoma
[22] = system: M14 melanoma
[23] = system: MALME-3M melanoma
[24] = system: MCF7 breast
[25] = system: MDA-MB-231 breast
[26] = system: MDA-MB-435
[27] = system: MOLT-4 leukemia
[28] = system: NCI-H226 lung
[29] = system: NCI-H23 lung
[30] = system: NCI-H460 lung
[31] = system: NCI-H522 lung
[32] = system: NCI/ADR-RES ovarian
[33] = system: OVCAR-3 ovarian
[34] = system: OVCAR-4 ovarian
[35] = system: OVCAR-5 ovarian
[36] = system: OVCAR-8 ovarian
[37] = system: PC-3 prostate
[38] = system: RPMI-8226 leukemia
[39] = system: RXF 393 renal
[40] = system: SF-268 CNS
[41] = system: SF-295 CNS
[42] = system: SF-539 CNS
[43] = system: SK-MEL-2 melanoma
[44] = system: SK-MEL-28 melanoma
[45] = system: SK-MEL-5 melanoma
[46] = system: SK-OV-3 ovarian
[47] = system: SN12C renal
[48] = system: SNB-19 CNS
[49] = system: SNB-75 CNS
[50] = system: SR leukemia
[51] = system: SW-620 colon
[52] = system: T-47D breast
[53] = system: TK-10 renal
[54] = system: U251 CNS
[55] = system: UACC-257 melanoma
[56] = system: UACC-62 melanoma
[57] = system: UO-31 renal
[58] = system: EKVX NSCLC

With `COc1ccccc1CCN=C1NC(=O)/C(=C/c2ccc3ncccc3c2)S1` the GI50 [1] was 8.24 µM, the TGI [1] was > 25 µM and the GI50 [2] was 3.45 µM. For the same compound, the TGI [2] was 12.3 µM, the GI50 [3] was 5.93 µM and the TGI [3] was > 25 µM. For the same compound, the GI50 [4] was 5.98 µM, the TGI [4] was 24.5 µM and the GI50 [5] was 6.22 µM. The TGI [5] was > 20.5 µM, the GI50 [6] was 3.52 µM and the TGI [6] was > 15.6 µM. It also gave a GI50 [7] of 5.45 µM, a TGI [7] of 23 µM and a GI50 [8] of 2.86 µM. The TGI [8] was > 19.6 µM, the GI50 [9] was 7.97 µM and the TGI [9] was > 25 µM. The GI50 [10] was 8.7 µM, the TGI [10] was > 25 µM and the GI50 [11] was 1.63 µM. The TGI [11] was > 12.4 µM, the GI50 [12] was 1.32 µM and the TGI [12] was > 25 µM. For the same compound, the GI50 [13] was 4.2 µM, the TGI [13] was 14.7 µM and the GI50 [14] was 8.17 µM. For the same compound, the TGI [14] was > 25 µM, the GI50 [15] was 6.02 µM and the TGI [15] was 22.1 µM. The GI50 [16] was 7.39 µM, the TGI [16] was > 18.1 µM and the GI50 [17] was 2.47 µM. For the same compound, the TGI [17] was 15.7 µM, the GI50 [18] was 4.87 µM and the TGI [18] was 19.6 µM. The GI50 [19] was 1.37 µM, the TGI [19] was > 25 µM and the GI50 [20] was 3.34 µM. For the same compound, the TGI [20] was > 25 µM, the GI50 [21] was 3.15 µM and the TGI [21] was 18.2 µM. For the same compound, the GI50 [22] was 8.41 µM, the TGI [22] was > 25 µM and the GI50 [23] was 7.44 µM. The TGI [23] was > 23 µM, the GI50 [24] was 1.63 µM and the TGI [24] was > 23.9 µM. The GI50 [25] was 9.39 µM, the TGI [25] was > 25 µM and the GI50 [26] was 1.43 µM. For the same compound, the TGI [26] was > 25 µM, the GI50 [27] was 6.42 µM and the TGI [27] was 15.7 µM. For the same compound, the GI50 [28] was 7.28 µM, the TGI [28] was 24.7 µM and the GI50 [29] was 8.56 µM. For the same compound, the TGI [29] was > 25 µM, the GI50 [30] was 6.05 µM and the TGI [30] was > 25 µM. The GI50 [31] was 2.36 µM, the TGI [31] was 7.54 µM and the GI50 [32] was 6.21 µM. The TGI [32] was > 25 µM, the GI50 [33] was 4.99 µM and the TGI [33] was 12.2 µM. For the same compound, the GI50 [34] was 4.27 µM, the TGI [34] was 20.5 µM and the GI50 [35] was 7.06 µM. For the same compound, the TGI [35] was > 23.1 µM, the GI50 [36] was 6.75 µM and the TGI [36] was > 25 µM. For the same compound, the GI50 [37] was 4.54 µM, the TGI [37] was > 25 µM and the GI50 [38] was 4.33 µM. It also gave a TGI [38] of 19.6 µM, a GI50 [39] of 5.5 µM and a TGI [39] of 16.9 µM. The GI50 [40] was 7.54 µM, the TGI [40] was > 25 µM and the GI50 [41] was 5.86 µM. For the same compound, the TGI [41] was > 21.8 µM, the GI50 [42] was 4.48 µM and the TGI [42] was 15.7 µM. The GI50 [43] was 6.57 µM, the TGI [43] was 13.5 µM and the GI50 [44] was 8.22 µM. The TGI [44] was > 25 µM, the GI50 [45] was 5.92 µM and the TGI [45] was 17.6 µM. The GI50 [46] was 5.67 µM, the TGI [46] was 14.4 µM and the GI50 [47] was 6.93 µM. The TGI [47] was > 25 µM, the GI50 [48] was 4.93 µM and the TGI [48] was > 25 µM. For the same compound, the GI50 [49] was 3.71 µM, the TGI [49] was > 19.2 µM and the GI50 [50] was 0.743 µM. The TGI [50] was 3.02 µM, the GI50 [51] was 1.32 µM and the TGI [51] was > 25 µM. For the same compound, the GI50 [52] was 6.76 µM, the TGI [52] was > 23.1 µM and the GI50 [53] was 4.48 µM. The TGI [53] was > 21.7 µM, the GI50 [54] was 4.1 µM and the TGI [54] was 24.9 µM. For the same compound, the GI50 [55] was 7.52 µM, the TGI [55] was > 25 µM and the GI50 [56] was 6.1 µM. The TGI [56] was > 25 µM, the GI50 [57] was 5.25 µM and the TGI [57] was 16.3 µM.
For `C#CCC(Cc1cnc2nc(N)nc(N)c2n1)c1ccc(C(=O)N[C@@H](CCC(=O)O)C(=O)O)cc1` (stereo not given in full), the GI50 [1] was < 0.01 µM, the TGI [1] was > 100 µM and the GI50 [2] was > 100 µM. The TGI [2] was > 100 µM, the GI50 [3] was < 0.01 µM and the TGI [3] was > 100 µM. For the same compound, the GI50 [4] was < 0.01 µM, the TGI [4] was > 100 µM and the GI50 [5] was > 100 µM. The TGI [5] was > 100 µM, the GI50 [6] was < 0.01 µM and the TGI [6] was > 100 µM. The GI50 [7] was < 0.01 µM, the TGI [7] was > 100 µM and the GI50 [8] was < 0.0159 µM. For the same compound, the TGI [8] was > 100 µM, the GI50 [9] was < 0.01 µM and the TGI [9] was > 100 µM. The TGI [58] was > 100 µM, the GI50 [10] was 0.0103 µM and the TGI [10] was > 100 µM. The GI50 [11] was < 0.01 µM, the TGI [11] was > 100 µM and the GI50 [12] was < 0.01 µM. The TGI [12] was > 100 µM, the GI50 [13] was < 0.01 µM and the TGI [13] was > 100 µM. For the same compound, the GI50 [14] was < 0.01 µM, the TGI [14] was > 100 µM and the GI50 [16] was > 100 µM. For the same compound, the TGI [16] was > 100 µM, the GI50 [17] was < 0.01 µM and the TGI [17] was > 100 µM. For the same compound, the GI50 [18] was < 0.01 µM, the TGI [18] was > 100 µM and the GI50 [19] was < 0.01 µM. The TGI [19] was > 100 µM, the GI50 [20] was < 0.01 µM and the TGI [20] was > 100 µM. The GI50 [21] was < 0.01 µM, the TGI [21] was > 100 µM and the GI50 [22] was < 0.01 µM. The TGI [22] was > 100 µM, the GI50 [23] was > 44 µM and the TGI [23] was > 100 µM. The GI50 [24] was < 0.01 µM, the TGI [24] was > 100 µM and the GI50 [26] was < 0.01 µM. For the same compound, the TGI [26] was > 100 µM, the GI50 [27] was < 0.01 µM and the TGI [27] was > 100 µM. The GI50 [28] was < 0.01 µM, the TGI [28] was > 100 µM and the GI50 [29] was < 0.0174 µM. The TGI [29] was > 100 µM, the GI50 [30] was < 0.01 µM and the TGI [30] was > 100 µM. The GI50 [31] was < 0.01 µM, the TGI [31] was > 100 µM and the GI50 [32] was < 0.01 µM. The TGI [32] was > 100 µM, the GI50 [33] was < 0.0135 µM and the TGI [33] was > 100 µM. The GI50 [34] was 0.975 µM, the TGI [34] was > 100 µM and the GI50 [35] was < 0.01 µM. The TGI [35] was > 100 µM, the GI50 [36] was < 0.01 µM and the TGI [36] was > 100 µM. For the same compound, the GI50 [37] was < 0.01 µM, the TGI [37] was > 100 µM and the GI50 [38] was < 0.01 µM. The TGI [38] was > 100 µM, the GI50 [39] was < 0.01 µM and the TGI [39] was > 100 µM. The GI50 [40] was < 0.01 µM, the TGI [40] was > 100 µM and the GI50 [41] was < 0.01 µM. For the same compound, the TGI [41] was > 100 µM, the GI50 [42] was < 0.01 µM and the TGI [42] was > 100 µM. For the same compound, the GI50 [43] was > 100 µM, the TGI [43] was > 100 µM and the GI50 [44] was 0.0901 µM. For the same compound, the TGI [44] was > 100 µM, the GI50 [45] was < 0.01 µM and the TGI [45] was > 100 µM. The GI50 [46] was < 0.01 µM, the TGI [46] was > 100 µM and the GI50 [47] was < 0.01 µM. The TGI [47] was > 100 µM, the GI50 [48] was < 0.0131 µM and the TGI [48] was > 100 µM. For the same compound, the GI50 [49] was < 0.0502 µM, the TGI [49] was > 100 µM and the GI50 [50] was < 0.01 µM. The TGI [50] was > 100 µM, the GI50 [51] was < 0.01 µM and the TGI [51] was > 100 µM. The GI50 [52] was > 100 µM, the TGI [52] was > 100 µM and the GI50 [53] was < 0.01 µM. The TGI [53] was > 100 µM, the GI50 [54] was < 0.01 µM and the TGI [54] was > 100 µM. For the same compound, the GI50 [55] was 0.0243 µM, the TGI [55] was > 100 µM and the GI50 [56] was < 0.01 µM. The TGI [56] was > 100 µM, the GI50 [57] was < 0.01 µM and the TGI [57] was > 100 µM.
